Test results: the supplement of paper PMC10307832

Columns and labels:
Test in all cases: relative viability (nuclei count vs DMSO), 5 days (fraction); higher = more cells survive
CAP-232 + Bortezomib = compound: C[C@H]([C@@H](C(=O)N)NC(=O)[C@@H]1CSSC[C@@H](C(=O)N[C@H](C(=O)N[C@@H](C(=O)N[C@H](C(=O)N1)CCCCN)CC2=CNC3=CC=CC=C32)CC4=CC=C(C=C4)O)NC(=O)[C@@H](CC5=CC=CC=C5)N)O [CAP-232] + CC(C)C[C@H](NC(=O)[C@H](Cc1ccccc1)NC(=O)c1cnccn1)B(O)O [Bortezomib] (partner 0.002 µM)
Procedure, shortened: (§1)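 Relative viability is defined as nuclei in treated wells over nuclei in vehicle wells. Duplicate plates were run and medians reported. Lung cancer cell lines in 1536-well plates were dosed by pin tool one day after seeding, with one drug or with a fixed anchor-drug dose plus five library-drug doses (not always all listed) in √10 steps, and nuclei were counted after 5 days.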

CAP-232 + Pictilisib = compound: C[C@H]([C@@H](C(=O)N)NC(=O)[C@@H]1CSSC[C@@H](C(=O)N[C@H](C(=O)N[C@@H](C(=O)N[C@H](C(=O)N1)CCCCN)CC2=CNC3=CC=CC=C32)CC4=CC=C(C=C4)O)NC(=O)[C@@H](CC5=CC=CC=C5)N)O [CAP-232] + CS(=O)(=O)N1CCN(Cc2cc3nc(-c4cccc5[nH]ncc45)nc(N4CCOCC4)c3s2)CC1 [Pictilisib] (partner 1 µM)
Procedure, shortened: as §1

CAP-232 + Crizotinib = compound: C[C@H]([C@@H](C(=O)N)NC(=O)[C@@H]1CSSC[C@@H](C(=O)N[C@H](C(=O)N[C@@H](C(=O)N[C@H](C(=O)N1)CCCCN)CC2=CNC3=CC=CC=C32)CC4=CC=C(C=C4)O)NC(=O)[C@@H](CC5=CC=CC=C5)N)O [CAP-232] + C[C@@H](Oc1cc(-c2cnn(C3CCNCC3)c2)cnc1N)c1c(Cl)ccc(F)c1Cl [Crizotinib] (partner 1 µM)
Procedure, shortened: as §1

CAP-232 + Linsitinib = compound: C[C@H]([C@@H](C(=O)N)NC(=O)[C@@H]1CSSC[C@@H](C(=O)N[C@H](C(=O)N[C@@H](C(=O)N[C@H](C(=O)N1)CCCCN)CC2=CNC3=CC=CC=C32)CC4=CC=C(C=C4)O)NC(=O)[C@@H](CC5=CC=CC=C5)N)O [CAP-232] + C[C@]1(O)C[C@@H](c2nc(-c3ccc4ccc(-c5ccccc5)nc4c3)c3c(N)nccn32)C1 [Linsitinib] (partner 1 µM)
Procedure, shortened: as §1

CAP-232 + Alpelisib = compound: C[C@H]([C@@H](C(=O)N)NC(=O)[C@@H]1CSSC[C@@H](C(=O)N[C@H](C(=O)N[C@@H](C(=O)N[C@H](C(=O)N1)CCCCN)CC2=CNC3=CC=CC=C32)CC4=CC=C(C=C4)O)NC(=O)[C@@H](CC5=CC=CC=C5)N)O [CAP-232] + Cc1nc(NC(=O)N2CCC[C@H]2C(N)=O)sc1-c1ccnc(C(C)(C)C(F)(F)F)c1 [Alpelisib] (partner 2 µM)
Procedure, shortened: as §1

| Cell Line | relative viability (CAP-232 + Bortezomib; first compound 0.4 µM) | relative viability (CAP-232 + Bortezomib; first compound 1.265 µM) | relative viability (CAP-232 + Bortezomib; first compound 4 µM) | relative viability (CAP-232 + Bortezomib; first compound 12.65 µM) | relative viability (CAP-232 + Pictilisib; first compound 0.4 µM) | relative viability (CAP-232 + Pictilisib; first compound 1.265 µM) | relative viability (CAP-232 + Pictilisib; first compound 4 µM) | relative viability (CAP-232 + Pictilisib; first compound 12.65 µM) | relative viability (CAP-232 + Crizotinib; first compound 0.4 µM) | relative viability (CAP-232 + Crizotinib; first compound 1.265 µM) | relative viability (CAP-232 + Crizotinib; first compound 4 µM) | relative viability (CAP-232 + Crizotinib; first compound 12.65 µM) | relative viability (CAP-232 + Linsitinib; first compound 0.4 µM) | relative viability (CAP-232 + Linsitinib; first compound 1.265 µM) | relative viability (CAP-232 + Linsitinib; first compound 4 µM) | relative viability (CAP-232 + Linsitinib; first compound 12.65 µM) | relative viability (CAP-232 + Alpelisib; first compound 0.4 µM) | relative viability (CAP-232 + Alpelisib; first compound 1.265 µM) | relative viability (CAP-232 + Alpelisib; first compound 4 µM) | relative viability (CAP-232 + Alpelisib; first compound 12.65 µM) |
| --- | --- | --- | --- | --- | --- | --- | --- | --- | --- | --- | --- | --- | --- | --- | --- | --- | --- | --- | --- | --- |
| LC-2-ad | 1.05 | 1.01 | 1.11 | 1 | 0.404 | 0.409 | 0.63 | 0.458 | 0.436 | 0.464 | 0.451 | 0.391 | 0.84 | 0.847 | 0.766 | 0.807 | 0.931 | 0.823 | 0.804 | 0.824 |
| LCLC-97TM1 | 0.83 | 0.765 | 0.856 | 0.555 | 0.217 | 0.193 | 0.232 | 0.193 | 0.494 | 0.347 | 0.28 | 0.315 | 0.148 | 0.21 | 0.218 | 0.18 | 0.252 | 0.228 | 0.285 | 0.244 |
| LK-2 |  |  |  |  | 0.42 | 0.608 | 0.494 | 0.61 | 0.216 | 0.251 | 0.181 | 0.199 | 0.463 | 0.836 | 0.517 | 0.389 | 1.02 | 1.15 | 1.2 | 1.75 |
| NCI-H358 |  |  |  |  | 0.28 | 0.301 | 0.298 | 0.402 | 0.435 | 0.426 | 0.473 | 0.511 | 0.548 | 0.686 | 0.796 | 0.584 | 0.508 | 0.821 | 0.868 | 0.789 |
| NCI-H1395 |  |  |  |  | 0.593 | 0.433 | 0.602 | 0.576 |  |  |  |  | 1.3 | 0.986 | 1.03 | 0.831 | 0.888 | 1.08 | 0.912 | 0.848 |
| NCI-H1650 | 0.196 | 0.209 | 0.214 | 0.117 | 0.636 | 0.578 | 0.535 | 0.154 | 0.98 | 0.963 | 0.966 | 0.627 |  |  |  |  |  |  |  |  |
| NCI-H1793 |  |  |  |  | 0.334 | 0.284 | 0.31 | 0.283 |  |  |  |  | 1.09 | 1.06 | 0.652 | 0.801 | 0.829 | 0.669 | 0.573 | 0.627 |
| NCI-H1944 |  |  |  |  | 0.371 | 0.33 | 0.394 | 0.354 | 1.12 | 1.05 | 1.03 | 1.24 | 1.3 | 1.13 | 1.14 | 1.07 | 0.956 | 0.806 | 0.794 | 0.782 |
| NCI-H2170 |  |  |  |  | 0.257 | 0.275 | 0.259 | 0.286 | 1.24 | 1.22 | 1.23 | 0.901 |  |  |  |  | 0.81 | 0.865 | 0.831 | 0.76 |
| SK-MES-1 |  |  |  |  | 0.335 | 0.379 | 0.32 | 0.323 | 0.965 | 0.909 | 0.926 | 0.931 | 1.09 | 1.14 | 1 | 1.01 | 0.997 | 0.944 | 1.06 | 0.938 |
